We go through one substance from patent publication US9125940B2, “Compositions and methods for treating macular edema” (priority 2011, dated 2015).

This test deals with macular edema. Briefly: Case report Example 1: patient with macular edema after central vein occlusion in the left eye, OCT, vision acuity and eye pressure. The format is in vivo, human. The source says: A patient experienced central vein occlusion in their left eye and subsequently suffered macular edema in 2005. Weak drusens were found in both of their eyes. […] The patient received corsteroid injection in the left eye. The macular edema went away for four months. However, the left eye pressure went up to 35-40 mmHg. Eye drops for lowering eye pressure were used to treat the high eye pressure. Within half a year, the patient developed cataract in their left eye and shortly thereafter advanced to a point that their left eye lost most vision and the eye specialist recommended surgery to remove the cataract. At the time of the surgery, it was discovered that the patient's macular edema had come back and it was rather severe. Avastin injection was then employed to treat macular edema. The edema went away for a month but still came back 2-3 months afterwards. At this point, the patient was notified that regular injection would be required for the rest of their life. As shown in the images from Optical Coherence Tomography (OCT) (FIG. 1), macular edema returned three months after the Avastin injection. Such was a repeated phenomenon since 2005, for more than three years. Macular edema re-occurred typically 3 months following Avastin injection. […].

Where [1] appears, read: June 2008, before treatment with the composition, FIG. 1.

Regarding “Avastin: Avastin injection employed to treat macular edema (anti-VEGF)”, under setting [1], the “ocular pressure three months after injection” value is 35 mmHg and the “vision acuity three months after injection” value was 20/40. In addition, the “time to re-occurrence of macular edema following injection” value (left eye, intravitreal injection, repeated for more than three years) is given as roughly 3 months.
